According to PMC4893617 (Scientific Reports, 2016):
Structures can show the parent of a compound that is named as a salt.

Tests used:
[1] = target: T1, ChuaMOX (mandelonitrile oxidase) (Chamberlinius hualienensis, UniProt A0A173MZJ8); assay type: biochemical
T1 construct: native enzyme purified from millipede bodies without guts; ORF 593 residues incl; 17-residue signal peptide; predicted mature 62,818 Da; 67 kDa SDS-PAGE, 65 kDa gel filtration; monomeric, glycosylated, FAD

[2] = target: T1, ChuaMOX (mandelonitrile oxidase); assay: biochemical; parameters: Oxidase activity of purified native ChuaMOX, ABTS read-out, pH 5, compound added at 1 mM; settings: for remaining activity at 1000 µM: read-out: % of control remaining
Procedure: Enzymatic activity decreased in conditions approaching neutral pH, and it was lowest at a pH of 7 (Fig. 1c). After one hour of incubation at 25 °C, 80% of the ChuaMOX activity remained over a range of pH values between 3 and 10 (Fig. 1d). […] After one hour of incubation at pH 8, 80% of the activity remained between 25 °C and 50 °C, and all activity was lost at 70 °C (Fig. 1f). […] (Table 1). The enzyme required [compound left out] as a substrate rather than [compound left out] (see Supplementary Table S3). […] The chemicals (see Supplementary Table S5) were purchased from various suppliers (Sigma-Aldrich, Dojindo, Alfa Aesar, and Tokyo Chemical Industries) or synthesized as described below and used as test substrates, inhibitors, and metal salts. Nitriles were prepared from their corresponding aldehydes by way of bisulfite adducts according to Young et al.[23].

[3] = target: T1, ChuaMOX (mandelonitrile oxidase); assay type: binding

T1 sequence (A0A173MZJ8 entry or part of it): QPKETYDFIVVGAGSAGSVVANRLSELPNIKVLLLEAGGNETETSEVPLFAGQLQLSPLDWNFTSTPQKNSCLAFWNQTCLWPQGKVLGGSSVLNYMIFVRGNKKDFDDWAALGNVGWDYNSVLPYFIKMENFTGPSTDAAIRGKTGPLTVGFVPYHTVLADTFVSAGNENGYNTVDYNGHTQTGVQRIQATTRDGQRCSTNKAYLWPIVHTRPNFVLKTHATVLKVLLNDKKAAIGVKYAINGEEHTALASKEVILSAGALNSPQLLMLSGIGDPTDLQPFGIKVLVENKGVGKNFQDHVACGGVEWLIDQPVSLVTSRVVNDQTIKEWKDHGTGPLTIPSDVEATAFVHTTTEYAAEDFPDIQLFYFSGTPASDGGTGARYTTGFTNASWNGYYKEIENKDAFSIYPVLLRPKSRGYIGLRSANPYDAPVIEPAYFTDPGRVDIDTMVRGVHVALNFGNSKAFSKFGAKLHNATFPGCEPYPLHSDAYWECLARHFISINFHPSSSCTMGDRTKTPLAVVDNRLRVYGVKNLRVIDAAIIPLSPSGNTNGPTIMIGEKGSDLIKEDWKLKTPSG

Compound | remaining activity at 1000 µM [2] [%] | also measured
N#CC(O)c1ccccc1 (racemic) [racemic mandelonitrile] | – | Km [1]: 2.1 mM
c1cnc2c(c1)ccc1cccnc12 [1,10-Phenanthroline] | 84.1 | –
NNC(=O)c1ccncc1 [Isoniazid] | 88 | –
O=C(O)CI [Iodoacetic acid] | 71.4 | –
Oc1cccc2cccnc12 [8-Hydroxyquinoline] | – | % of control remaining ([2]; pH 5, standard assay, 1000 µM, inhibitor): 56.0%
NNC(N)=O [Semicarbazide hydrochloride] | 92 | –
c1ccc(-c2ccccn2)nc1 [2,2'-Bipyridyl] | 87.3 | –
Cc1cc2nc3c(=O)[nH]c(=O)nc-3n(C[C@H](O)[C@H](O)[C@H](O)COP(=O)(O)OP(=O)(O)OC[C@H]3O[C@@H](n4cnc5c(N)ncnc54)[C@H](O)[C@@H]3O)c2cc1C [flavin adenine dinucleotide] | – | thin layer chromatography of the prosthetic group; UV-visible spectrum of purifi [3]: Thin layer chromatography (TLC) identified the prosthetic group as flavin adenine dinucleotide (FAD)
CC(C)NNC(=O)c1ccncc1 [Iproniazid] | 80 | –
C#CCN(C)Cc1ccccc1 [Pargyline] | 100 | –
CCN1C(=O)C=CC1=O [N-Ethylmaleimide] | 96.8 | –
